Measurements from DBAASP.
≈ marks a conversion by molar mass, not a printed value.

How the values were obtained:
Assay in all cases: ≥ marks a high value that may be exact or a test limit, other limits are often not marked, values filed in µg/mL are converted to µM
[1] = tested on: Pseudomonas aeruginosa
[2] = tested on: Candida albicans F7-39/IDE99
[3] = tested on: Micrococcus luteus CCM 144
[4] = tested on: Staphylococcus aureus
[5] = tested on: Escherichia coli B
[6] = tested on: Bacillus subtilis 168
[7] = tested on: Escherichia coli NCTC 10418
[8] = tested on: Staphylococcus aureus NCTC 10788
[9] = tested on: Candida albicans NCPF 1467
[10] = tested on: Pseudomonas aeruginosa ATCC 15692
[11] = tested on: Escherichia coli ATCC 25922
[12] = tested on: Micrococcus luteus
[13] = tested on: Saccharomyces cerevisiae
[14] = tested on: Staphylococcus aureus ATCC 25923
[15] = tested on: Micrococcus luteus ATCC 4698
[16] = tested on: Klebsiella pneumoniae
[17] = tested on: Pseudomonas aeruginosa PAO1
[18] = tested on: Escherichia coli K-12
[19] = tested on: Staphylococcus aureus NCTC 8325-4

An MIC [1] of 65 µM (≈ 96.9 µg/mL), an MIC [2] of 8 µM (≈ 11.9 µg/mL) and an MIC [3] of 5 µM (≈ 7.45 µg/mL) were found for `CC[C@H](C)[C@H](NC(=O)[C@H](C)NC(=O)[C@H](CCCCN)NC(=O)[C@H](Cc1c[nH]c2ccccc12)NC(=O)[C@H](CC(N)=O)NC(=O)[C@@H](N)CCCCN)C(=O)N[C@@H](CC(C)C)C(=O)N[C@@H](CCCCN)C(=O)N[C@@H](Cc1cnc[nH]1)C(=O)N[C@H](C(=O)N[C@H](C(=O)N[C@@H](CCCCN)C(N)=O)[C@@H](C)CC)[C@@H](C)CC` [KNWKAILKHIIK] in this work. For the same molecule, the MIC [4] was 65 µM (≈ 96.9 µg/mL), the MIC [5] was 7.8 µM (≈ 11.6 µg/mL) and the MIC [6] was 2.5 µM (≈ 3.73 µg/mL).
An MIC [7] of at least 33.7 µM, an MIC [8] of 4.21 µM (≈ 8 µg/mL) and an MIC [9] of 4.21 µM (≈ 8 µg/mL) were found for `CC[C@H](C)[C@H](NC(=O)CNC(=O)[C@@H]1CCCN1C(=O)[C@H](CC(C)C)NC(=O)[C@H](C)NC(=O)[C@H](CC(N)=O)NC(=O)[C@H](CCCCN)NC(=O)[C@@H](NC(=O)[C@@H](NC(=O)[C@H](CO)NC(=O)[C@H](CC(C)C)NC(=O)[C@@H](NC(=O)CN)C(C)C)C(C)C)[C@@H](C)CC)C(=O)N[C@@H](CCSC)C(=O)N[C@@H](CCCN=C(N)N)C(=O)N[C@@H](Cc1ccccc1)C(=O)N[C@H](C(=O)N[C@@H](C)C(N)=O)[C@@H](C)CC` [GVLSVIKNALPGIMRFIA] in this work.
An MIC [10] of 11.3 µM (≈ 30.6 µg/mL), an MIC [11] of 1.41 µM (≈ 3.83 µg/mL) and an MIC [12] of 1 µM (≈ 2.71 µg/mL) were found for `CC[C@H](C)[C@H](NC(=O)[C@@H]1CCCN1C(=O)[C@H](CCC(N)=O)NC(=O)[C@@H](NC(=O)[C@H](CC(C)C)NC(=O)[C@H](CCCCN)NC(=O)[C@@H]1CCCN1C(=O)CNC(=O)[C@H](CC(C)C)NC(=O)[C@H](CCC(N)=O)NC(=O)[C@H](CCSC)NC(=O)[C@H](C)NC(=O)[C@H](CCCCN)NC(=O)[C@H](CCCN=C(N)N)NC(=O)[C@H](CC(C)C)NC(=O)[C@@H](NC(=O)[C@H](CCCCN)NC(=O)CNC(=O)[C@H](Cc1ccccc1)NC(=O)[C@@H](NC(=O)[C@@H]1CCCN1C(=O)[C@H](CC(C)C)NC(=O)[C@H](Cc1c[nH]c2ccccc12)NC(=O)CN)[C@@H](C)O)[C@@H](C)CC)[C@@H](C)CC)C(=O)O` [GWLPTFGKILRKAMQLGPKLIQPI] in this work. The MIC [13] was at least 32 µM and the MIC [14] was 16 µM (≈ 43.3 µg/mL).
An MIC [15] of at least 75 µM was found for `CC[C@H](C)[C@H](NC(=O)[C@H](CO)NC(=O)[C@H](CCCCN)NC(=O)[C@H](CO)NC(=O)[C@H](Cc1cnc[nH]1)NC(=O)[C@H](CCCN=C(N)N)NC(=O)[C@H](Cc1cnc[nH]1)NC(=O)[C@H](CO)NC(=O)[C@H](CCC(N)=O)NC(=O)[C@H](Cc1ccc(O)cc1)NC(=O)[C@H](CC(N)=O)NC(=O)[C@H](CC(N)=O)NC(=O)[C@@H]1CCCN1C(=O)[C@H](CO)NC(=O)CNC(=O)[C@H](Cc1ccccc1)NC(=O)CN)C(=O)N1CCC[C@H]1C(=O)NCC(=O)N[C@@H](CCCN=C(N)N)C(=O)O` [GFGSPNNYQSHRHSKSIPGR] in this work.
An MIC [7] of at least 200 µM, an MIC [8] of 5 µM (≈ 10.1 µg/mL) and an MIC [9] of 20 µM (≈ 40.5 µg/mL) were found for `CC[C@H](C)[C@H](NC(=O)CNC(=O)[C@H](CO)NC(=O)[C@H](C)NC(=O)[C@@H](NC(=O)[C@H](Cc1cnc[nH]1)NC(=O)[C@@H]1CCCN1C(=O)[C@@H](NC(=O)[C@H](CC(C)C)NC(=O)[C@H](CO)NC(=O)[C@H](CC(C)C)NC(=O)[C@@H](N)Cc1ccccc1)[C@@H](C)CC)[C@@H](C)CC)C(=O)N[C@@H](C)C(=O)N[C@@H](CO)C(=O)N[C@@H](CC(C)C)C(=O)N[C@H](C(=O)N[C@@H](CCCCN)C(=O)N[C@@H](CC(N)=O)C(=O)N[C@@H](Cc1ccccc1)C(N)=O)C(C)C` [FLSLIPHIASGIASLVKNF] in this work.
An MIC [16] of over 500 µM, an MIC [17] of over 500 µM and an MIC [18] of at least 500 µM were found for `CC(C)C[C@H](NC(=O)[C@H](CCCCN)NC(=O)[C@H](CCCCN)NC(=O)[C@H](CC(C)C)NC(=O)[C@H](CC(C)C)NC(=O)[C@H](CCCCN)NC(=O)[C@H](CCCCN)NC(=O)[C@@H](N)CC(C)C)C(N)=O` [LKKLLKKL] in this work. The MIC [19] was at least 500 µM.
